Source: patent US7709482B2, “Polycyclic heteroaryl substituted triazoles useful as Axl inhibitors” (Rigel Pharmaceuticals, Inc., priority 2006, dated 2010)

Each molecule was assayed against T1, Axl (Homo sapiens, UniProt P30530) (assay: Phospho-Akt In-Cell Western Assay (inhibition of Axl activity after Axl-antibody cross-linking)). Settings: not given.
T1 construct: endogenous in cells; host or cells: HeLa cells
T1 sequence (P30530 26-894): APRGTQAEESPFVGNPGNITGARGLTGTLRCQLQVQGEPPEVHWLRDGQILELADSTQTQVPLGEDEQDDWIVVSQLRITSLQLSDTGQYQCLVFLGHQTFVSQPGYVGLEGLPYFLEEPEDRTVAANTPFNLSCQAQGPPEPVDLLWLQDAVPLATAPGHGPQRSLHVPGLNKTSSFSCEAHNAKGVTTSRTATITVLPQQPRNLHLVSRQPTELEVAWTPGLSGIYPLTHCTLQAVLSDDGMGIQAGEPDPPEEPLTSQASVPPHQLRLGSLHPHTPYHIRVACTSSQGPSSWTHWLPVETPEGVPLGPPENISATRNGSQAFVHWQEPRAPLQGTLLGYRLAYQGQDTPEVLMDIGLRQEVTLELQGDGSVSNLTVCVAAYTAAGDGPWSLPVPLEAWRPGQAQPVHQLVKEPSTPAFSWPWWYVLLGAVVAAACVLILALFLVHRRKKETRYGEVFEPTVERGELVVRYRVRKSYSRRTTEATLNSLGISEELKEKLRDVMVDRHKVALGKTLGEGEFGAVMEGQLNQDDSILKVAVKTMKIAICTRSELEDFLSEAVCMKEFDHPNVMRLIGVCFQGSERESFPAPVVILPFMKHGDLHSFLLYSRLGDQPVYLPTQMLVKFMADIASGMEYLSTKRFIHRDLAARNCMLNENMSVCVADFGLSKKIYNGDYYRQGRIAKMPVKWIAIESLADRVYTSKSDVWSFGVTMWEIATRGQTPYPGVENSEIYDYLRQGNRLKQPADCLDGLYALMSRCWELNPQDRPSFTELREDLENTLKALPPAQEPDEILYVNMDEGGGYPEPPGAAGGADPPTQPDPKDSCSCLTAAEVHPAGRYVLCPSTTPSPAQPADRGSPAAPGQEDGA
Assay type: cell-based
Procedure, shortened: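 HeLa cells on poly-L-lysine, starved 24 h in 0.5% FCS DMEM with Axl/Fc 500 ng/mL, pre-treated with compound 1 h at 37 °C, then stimulated 5 min by anti-Axl/anti-mouse antibody cross-linking. Fixed cells probed for phospho-Akt with HRP secondary and chemiluminescent detection.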

| Structure (SMILES) | IC50 [µM] |
| --- | --- |
| Nc1nc(Nc2ccc(N3CCC(N4C(=O)Cc5ccccc54)CC3)c(F)c2)n(-c2cc3c(nn2)-c2ccccc2CCC3)n1 [Compound 157, 1-(6,7-dihydro-5H-benzo[6,7]cyclohepta[1,2-c]pyridazin-3-yl)-N^5-(3-fluoro-4-(4-(indolin-2-on-1-yl)piperidin-1-yl)phenyl)-1H-1,2,4-triazole-3,5-diamine] | > 20 |

Same assay, conditions: Hela cells, phospho-Akt chemiluminescence normalized to relative cell number; compounds of formula (Ib), Table 2; read-out: IC50

| Structure (SMILES) | IC50 [µM] |
| --- | --- |
| Nc1nc(Nc2ccc(N3CCC(N4CCOCC4)CC3)c(F)c2)n(-c2cc3c(nn2)-c2ccccc2CCC3)n1 [Compound 158, 1-(6,7-dihydro-5H-benzo[6,7]cyclohepta[1,2-c]pyridazin-3-yl)-N^5-(3-fluoro-4-(4-(morpholin-4-yl)piperidin-1-yl)phenyl)-1H-1,2,4-triazole-3,5-diamine] | > 20 |
| CN(C)Cc1nc2cc(Nc3nc(N)nn3-c3cc4c(nn3)-c3ccccc3CCC4)ccc2[nH]1 [Compound 159, 1-(6,7-dihydro-5H-benzo[6,7]cyclohepta[1,2-c]pyridazin-3-yl)-N^5-(2-((dimethylamino)methyl)-1H-benzo[d]imidazol-5-yl)-1H-1,2,4-triazole-3,5-diamine] | > 20 |
| CC1CN(c2ccc(Nc3nc(N)nn3-c3cc4c(nn3)-c3ccccc3CCC4)cc2)CC(C)N1 (centres unmarked) [Compound 160, 1-(6,7-dihydro-5H-benzo[6,7]cyclohepta[1,2-c]pyridazin-3-yl)-N^5-(4-(3,5-dimethylpiperazin-1-yl)phenyl)-1H-1,2,4-triazole-3,5-diamine] | < 1 |

Same assay, conditions: inhibition of Axl activity; Table 1, compounds of formula (Ia); read-out: IC50

| Structure (SMILES) | IC50 [µM] |
| --- | --- |
| Cc1cc(Nc2nc(N)n(-c3cc4c(nn3)-c3ccccc3CCC4)n2)cnc1N1CCC(N2CCCC2)CC1 [Compound 136, 1-(6,7-dihydro-5H-benzo[6,7]cyclohepta[1,2-c]pyridazin-3-yl)-N^3-(6-(4-(pyrrolidin-1-yl)piperidin-1-yl)-5-methylpyridin-3-yl)-1H-1,2,4-triazole-3,5-diamine] | < 1 |
| Nc1nc(Nc2ccc(C3NCC4CNCC43)c(F)c2)nn1-c1cc2c(nn1)-c1ccccc1CCC2 (centres unmarked) [Compound 137, 1-(6,7-dihydro-5H-benzo[6,7]cyclohepta[1,2-c]pyridazin-3-yl)-N^3-(3-fluoro-4-(octahydropyrrolo[3,4-c]pyrrolyl)phenyl)-1H-1,2,4-triazole-3,5-diamine] | < 1 |
| Nc1nc(Nc2ccc(/C=C/CN3CCCCC3)nc2)nn1-c1cc2c(nn1)-c1ccccc1CCC2 [Compound 138, 1-(6,7-dihydro-5H-benzo[6,7]cyclohepta[1,2-c]pyridazin-3-yl)-N^3-(6-(3-piperidin-1-yl-(E)-propenyl)pyridin-3-yl)-1H-1,2,4-triazole-3,5-diamine] | < 1 |
| Nc1nc(Nc2cnc3c(c2)CN(C2CCCC2)CCC3)nn1-c1cc2c(nn1)-c1ccccc1CCC2 [Compound 139, 1-(6,7-dihydro-5H-benzo[6,7]cyclohepta[1,2-c]pyridazin-3-yl)-N^3-(6-cyclopentyl-6,7,8,9-tetrahydro-5H-pyrido[3,2-c]azepin-3-yl)-1H-1,2,4-triazole-3,5-diamine] | > 20 |
| Nc1nc(Nc2ccc(N3CCCN(C4CC5CCC4C5)CC3)nc2)nn1-c1cc2c(nn1)-c1ccccc1CCC2 (centres unmarked) [Compound 140, 1-(6,7-dihydro-5H-benzo[6,7]cyclohepta[1,2-c]pyridazin-3-yl)-N^3-(6-(4-(bicyclo[2.2.1]heptan-2-yl)-1,4-diazepan-1-yl)pyridin-3-yl)-1H-1,2,4-triazole-3,5-diamine] | < 1 |
| Nc1nc(Nc2ccc(/C=C/CN3CCC(N4CCCC4)CC3)nc2)nn1-c1cc2c(nn1)-c1ccccc1CCC2 [Compound 141, 1-(6,7-dihydro-5H-benzo[6,7]cyclohepta[1,2-c]pyridazin-3-yl)-N^3-(6-(3-(4-(pyrrolidin-1-yl)piperidin-1-yl)-(E)-propenyl)pyridin-3-yl)-1H-1,2,4-triazole-3,5-diamine] | 1 to 10 |
| Nc1nc(Nc2ccc(CCCN3CCCCC3)nc2)nn1-c1cc2c(nn1)-c1ccccc1CCC2 [Compound 142, 1-(6,7-dihydro-5H-benzo[6,7]cyclohepta[1,2-c]pyridazin-3-yl)-N^3-(6-(3-piperidin-1-yl)-propanylpyridin-3-yl)-1H-1,2,4-triazole-3,5-diamine] | < 1 |
| Nc1nc(Nc2ccc(N3CCC(N4CCCC4)CC3)c(F)c2)nn1-c1cc2c(nn1)-c1ccc(Cl)cc1CCC2 [Compound 143, 1-(6,7-dihydro-9-chloro-5H-benzo[6,7]cyclohepta[1,2-c]pyridazin-3-yl)-N^3-(3-fluoro-4-(4-pyrrolidin-1-ylpiperidin-1-yl)phenyl)-1H-1,2,4-triazole-3,5-diamine] | < 1 |
| CN1CCN(C2CCN(c3ccc(Nc4nc(N)n(-c5cc6c(nn5)-c5ccc(Cl)cc5CCC6)n4)cc3F)CC2)CC1 [Compound 144, 1-(6,7-dihydro-9-chloro-5H-benzo[6,7]cyclohepta[1,2-c]pyridazin-3-yl)-N^3-(3-fluoro-4-(4-(N-methylpiperazin-1-yl)piperidin-1-yl)phenyl)-1H-1,2,4-triazole-3,5-diamine] | 1 to 10 |
| Nc1nc(Nc2ccc(/C=C/CN3CCC(N4CCCCC4)CC3)nc2)nn1-c1cc2c(nn1)-c1ccccc1CCC2 [Compound 145, 1-(6,7-dihydro-5H-benzo[6,7]cyclohepta[1,2-c]pyridazin-3-yl)-N^3-(6-(3-(4-(piperidin-1-yl)piperidin-1-yl)-(E)-propenyl)pyridin-3-yl)-1H-1,2,4-triazole-3,5-diamine] | < 1 |
| CN(C)C1CCN(C/C=C/c2ccc(Nc3nc(N)n(-c4cc5c(nn4)-c4ccccc4CCC5)n3)cn2)CC1 [Compound 146, 1-(6,7-dihydro-5H-benzo[6,7]cyclohepta[1,2-c]pyridazin-3-yl)-N^3-(6-(3-(4-dimethylaminopiperidin-1-yl)-(E)-propenyl)pyridin-3-yl)-1H-1,2,4-triazole-3,5-diamine] | < 1 |
| Nc1nc(Nc2cnc(N3CCC(N4CCCC4)CC3)nc2)nn1-c1cc2c(nn1)-c1ccccc1CCC2 [Compound 147, 1-(6,7-dihydro-5H-benzo[6,7]cyclohepta[1,2-c]pyridazin-3-yl)-N^3-(2-(4-pyrrolidin-1-ylpiperidin-1-yl)pyrimidin-5-yl)-1H-1,2,4-triazole-3,5-diamine] | < 1 |
| Nc1nc(Nc2cnc(N3CCC(CN4CCCCC4)CC3)nc2)nn1-c1cc2c(nn1)-c1ccccc1CCC2 [Compound 148, 1-(6,7-dihydro-5H-benzo[6,7]cyclohepta[1,2-c]pyridazin-3-yl)-N^3-(2-(4-(piperidin-1-ylmethyl)piperidin-1-yl)pyrimidin-5-yl)-1H-1,2,4-triazole-3,5-diamine] | 1 to 10 |
| Nc1nc(Nc2ccc(C(=O)N3CCC(N4CCCCC4)CC3)nc2)nn1-c1cc2c(nn1)-c1ccccc1CCC2 [Compound 149, 1-(6,7-dihydro-5H-benzo[6,7]cyclohepta[1,2-c]pyridazin-3-yl)-N^3-(6-((4-piperidin-1-ylpiperidin-1-yl)carbonyl)pyridin-3-yl)-1H-1,2,4-triazole-3,5-diamine] | 1 to 10 |
| Nc1nc(Nc2ccc3c(c2)CCC(N2CCCCC2)CC3)nn1-c1cc2c(nn1)-c1ccccc1CCC2 (centres unmarked) [Compound 150, 1-(6,7-dihydro-5H-benzo[6,7]cyclohepta[1,2-c]pyridazin-3-yl)-N^3-((7-piperidin-1-yl)-6,7,8,9-tetrahydro-5H-benzo[7]annulene-2-yl)-1H-1,2,4-triazole-3,5-diamine] | < 1 |
| Nc1nc(Nc2ccc3c(c2)CCC(N2CCC2)CC3)nn1-c1cc2c(nn1)-c1ccccc1CCC2 (centres unmarked) [Compound 151, 1-(6,7-dihydro-5H-benzo[6,7]cyclohepta[1,2-c]pyridazin-3-yl)-N^3-((7-azetidin-1-yl)-6,7,8,9-tetrahydro-5H-benzo[7]annulene-2-yl)-1H-1,2,4-triazole-3,5-diamine] | < 1 |
| Nc1nc(Nc2cnc3c(c2)CCC(N2CCCC2)CC3)nn1-c1cc2c(nn1)-c1ccccc1CCC2 (centres unmarked) [Compound 152, 1-(6,7-dihydro-5H-benzo[6,7]cyclohepta[1,2-c]pyridazin-3-yl)-N^3-((7-pyrrolidin-1-yl)-6,7,8,9-tetrahydro-5H-cyclohepta[b]pyridine-3-yl)-1H-1,2,4-triazole-3,5-diamine] | < 1 |
| Nc1nc(Nc2ccc3c(c2)CN(C2CCCC2)CC3)nn1-c1cc2c(nn1)-c1ccccc1CCC2 [Compound 153, 1-(6,7-dihydro-5H-benzo[6,7]cyclohepta[1,2-c]pyridazin-3-yl)-N^3-(2-cyclopentyl-1,2,3,4-tetrahydroisoquinolin-7-yl)-1H-1,2,4-triazole-3,5-diamine] | < 1 |
| Nc1nc(Nc2ccc(I)cc2)nn1-c1cc2c(nn1)-c1ccccc1CCC2 [Compound 156, 1-(6,7-dihydro-5H-benzo[6,7]cyclohepta[1,2-c]pyridazin-3-yl)-N^3-(4-iodophenyl)-1H-1,2,4-triazole-3,5-diamine] | > 20 |
